Source: patent US9326973B2, “Hepatitis C virus inhibitors” (priority 2012, dated 2016)

Test system: HCV replicon, genotype-1a variant with glutamine 30 changed to glutamate in the NS5A protein
Assay: microbe, parasite or virus in culture
Format: cell-based, HCV genotype 1a
Conditions: HCV replicon genotype 1a Q30E (Q→E) variant; test compound titrated with an NS5A-targeting compound (BMS-790052 fixed at 200 nM); ranking of synergist activity
Outline: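 Synergy was assessed by combining several fixed amounts of an NS5A-targeting compound with a titration of the second compound of interest.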

C[C@@H]1CN(C(C)(C)C(=O)N[C@H](c2nc(-c3ccc(-c4ccc(-c5c[nH]c([C@@H](NC(=O)C(C)(C)N6C[C@@H](C)O[C@@H](C)C6)C6(C)CC6)n5)cc4)cc3)c[nH]2)C2(C)CC2)C[C@H](C)O1 [Compound W-162]
Fold-Synergistic 1a (Q30E): >100 fold

CC1(C)CCCC(C)(C(=O)N[C@H](c2nc(-c3ccc(-c4ccc(-c5c[nH]c([C@@H](NC(=O)C6(C)CCCC(C)(C)O6)C(C)(C)C)n5)cc4)cc3)c[nH]2)C(C)(C)C)O1 (some centres unmarked) [Compound W-165]
Fold-Synergistic 1a (Q30E): >100 fold

CC1(C)CCCC(C)(C(=O)N[C@H](c2nc(-c3ccc(-c4ccc(-c5c[nH]c([C@@H](NC(=O)C6(C)CCCC(C)(C)O6)C(C)(C)C)n5)cc4)cc3)c[nH]2)C(C)(C)C)O1 (some centres unmarked) [Compound W-167]
Fold-Synergistic 1a (Q30E): >100 fold

CC1(C)CCCC(C)(C(=O)N[C@H](c2nc(-c3ccc(-c4ccc(-c5c[nH]c([C@@H](NC(=O)C6(C)CCCC(C)(C)O6)C(C)(C)C)n5)cc4)cc3)c[nH]2)C(C)(C)C)O1 (some centres unmarked) [Compound W-168]
Fold-Synergistic 1a (Q30E): >10 fold

CC(C)(C)[C@H](NC(=O)[C@H]1C[C@@](C)(O)C1)c1nc(-c2ccc(-c3ccc(-c4c[nH]c([C@@H](NC(=O)[C@H]5C[C@@](C)(O)C5)C(C)(C)C)n4)cc3)cc2)c[nH]1 [Compound W-169]
Fold-Synergistic 1a (Q30E): >100 fold

CC(C)(C)[C@H](NC(=O)[C@H]1C[C@](C)(O)C1)c1nc(-c2ccc(-c3ccc(-c4c[nH]c([C@@H](NC(=O)[C@H]5C[C@](C)(O)C5)C(C)(C)C)n4)cc3)cc2)c[nH]1 [Compound W-170]
Fold-Synergistic 1a (Q30E): >100 fold

CC(C)(C)[C@H](NC(=O)C1CC(=O)C1)c1nc(-c2ccc(-c3ccc(-c4c[nH]c([C@@H](NC(=O)C5CC(=O)C5)C(C)(C)C)n4)cc3)cc2)c[nH]1 [Compound W-171]
Fold-Synergistic 1a (Q30E): >100 fold

CC(C)[C@H](NC(=O)C1CC(=O)C1)c1nc(-c2ccc(-c3ccc(-c4c[nH]c([C@@H](NC(=O)C5CC(=O)C5)C(C)C)n4)cc3)cc2)c[nH]1 [Compound W-172]
Fold-Synergistic 1a (Q30E): >10 fold

CC(C)(C)[C@H](NC(=O)C1CCC(=O)CC1)c1nc(-c2ccc(-c3ccc(-c4c[nH]c([C@@H](NC(=O)C5CCC(=O)CC5)C(C)(C)C)n4)cc3)cc2)c[nH]1 [Compound W-173]
Fold-Synergistic 1a (Q30E): >100 fold

CC1([C@H](NC(=O)C2CC(=O)C2)c2nc(-c3ccc(-c4ccc(-c5c[nH]c([C@@H](NC(=O)C6CC(=O)C6)C6(C)CC6)n5)cc4)cc3)c[nH]2)CC1 [Compound W-174]
Fold-Synergistic 1a (Q30E): >100 fold

CC(C)(C)[C@H](NC(=O)[C@H]1CC[C@@](C)(O)CC1)c1nc(-c2ccc(-c3ccc(-c4c[nH]c([C@@H](NC(=O)[C@H]5CC[C@@](C)(O)CC5)C(C)(C)C)n4)cc3)cc2)c[nH]1 [Compound W-175]
Fold-Synergistic 1a (Q30E): >100 fold

CC(C)[C@H](NC(=O)C1CC2(C1)OCCO2)c1nc(-c2ccc(-c3ccc(-c4c[nH]c([C@@H](NC(=O)C5CC6(C5)OCCO6)C(C)C)n4)cc3)cc2)c[nH]1 (some centres unmarked) [Compound W-176]
Fold-Synergistic 1a (Q30E): >100 fold

CC(C)(C)[C@H](NC(=O)C1CC2(C1)OCCO2)c1nc(-c2ccc(-c3ccc(-c4c[nH]c([C@@H](NC(=O)C5CC6(C5)OCCO6)C(C)(C)C)n4)cc3)cc2)c[nH]1 (some centres unmarked) [Compound W-178]
Fold-Synergistic 1a (Q30E): >100 fold

CC(C)(C)[C@H](Nc1nc(C(F)(F)F)c(Cl)s1)c1nc(-c2ccc(-c3ccc(-c4c[nH]c([C@@H](Nc5nc(C(F)(F)F)c(Cl)s5)C(C)(C)C)n4)cc3)cc2)c[nH]1 [Compound W-180]
Fold-Synergistic 1a (Q30E): <10 fold

CC(C)[C@H](NC(=O)[C@@H]1C[C@@H](F)CN1C(=O)OC(C)(C)C)c1nc(-c2ccc(-c3ccc(-c4c[nH]c([C@@H](NC(=O)[C@@H]5C[C@@H](F)CN5C(=O)OC(C)(C)C)C(C)C)n4)cc3)cc2)c[nH]1 [Compound W-181]
Fold-Synergistic 1a (Q30E): >100 fold

CC(C)(C)OC(=O)N1C[C@H](F)C[C@H]1C(=O)N[C@H](c1nc(-c2ccc(-c3ccc(-c4c[nH]c([C@@H](NC(=O)[C@@H]5C[C@@H](F)CN5C(=O)OC(C)(C)C)C5(C)CC5)n4)cc3)cc2)c[nH]1)C1(C)CC1 [Compound W-182]
Fold-Synergistic 1a (Q30E): >100 fold

CC(C)(C)[C@H](Nc1nc2ccccc2s1)c1nc(-c2ccc(-c3ccc(-c4c[nH]c([C@@H](Nc5nc6ccccc6s5)C(C)(C)C)n4)cc3)cc2)c[nH]1 [Compound W-183]
Fold-Synergistic 1a (Q30E): >10 fold

C[C@H]1CCN(C(=O)C(=O)N2CCC(F)(F)CC2)C1c1nc(-c2ccc(-c3ccc(-c4c[nH]c([C@@H]5[C@@H](C)CCN5C(=O)C(=O)N5CCC(F)(F)CC5)n4)cc3)cc2)c[nH]1 (some centres unmarked) [Compound W-186]
Fold-Synergistic 1a (Q30E): >100 fold

C[C@H]1CCN(C(=O)C(=O)N2CCC(F)(F)CC2)C1c1nc(-c2ccc(-c3ccc(-c4c[nH]c([C@@H]5[C@@H](C)CCN5C(=O)C(=O)N5CCC(F)(F)CC5)n4)cc3)cc2)c[nH]1 (some centres unmarked) [Compound W-187]
Fold-Synergistic 1a (Q30E): >100 fold

C[C@H]1CCN(C(=O)C2CCC(F)(F)CC2)[C@@H]1c1nc(-c2ccc(-c3ccc(-c4c[nH]c([C@@H]5[C@@H](C)CCN5C(=O)C5CCC(F)(F)CC5)n4)cc3)cc2)c[nH]1 [Compound W-188]
Fold-Synergistic 1a (Q30E): >10 fold

COc1cc2ccccc2c(C(=O)N2CCCC2c2ncc(-c3ccc(-c4ccc(-c5cnc(C(NC(=O)C(C)(C)C)C(C)C)[nH]5)cc4)cc3)[nH]2)n1 (centres unmarked) [Compound Y-13]
Fold-Synergistic 1a (Q30E): >100 fold

Cc1ccc(S(=O)(=O)N[C@H](c2ncc(-c3ccc(-c4ccc(-c5cnc([C@@H](NS(=O)(=O)c6ccc(C)cc6)C(C)C)[nH]5)cc4)cc3)[nH]2)C(C)C)cc1 [Compound Y-58]
Fold-Synergistic 1a (Q30E): >100 fold

CC(C)(C)[C@H](NC(=O)C1C2C3CCC(C3)C12)c1nc(-c2ccc(-c3ccc(-c4c[nH]c([C@@H](NC(=O)C5C6C7CCC(C7)C56)C(C)(C)C)n4)cc3)cc2)c[nH]1 (some centres unmarked) [Compound Y-62]
Fold-Synergistic 1a (Q30E): >100 fold

COC(C)(C)C(=O)N[C@H](c1nc(-c2ccc(-c3ccc(-c4c[nH]c([C@@H](NC(=O)C(C)(C)OC)C5(C)CC5)n4)cc3)cc2)c[nH]1)C1(C)CC1 [Compound Y-63]
Fold-Synergistic 1a (Q30E): >100 fold

CC(C)(OCC(F)F)C(=O)N[C@H](c1nc(-c2ccc(-c3ccc(-c4c[nH]c([C@@H](NC(=O)C(C)(C)OCC(F)F)C5(C)CC5)n4)cc3)cc2)c[nH]1)C1(C)CC1 [Compound Y-64]
Fold-Synergistic 1a (Q30E): >100 fold

CC(C)(C)C(=O)N[C@H](c1ncc(-c2ccc(-c3ccc(-c4cnc([C@@H](NC(=O)C(C)(C)C)C(C)(C)CF)[nH]4)cc3)cc2)[nH]1)C(C)(C)CF [Compound Y-68]
Fold-Synergistic 1a (Q30E): >100 fold

CC(C)(C)[C@H](NC(=O)C1CCC(C(F)F)CC1)c1nc(-c2ccc(-c3ccc(-c4c[nH]c([C@@H](NC(=O)C5CCC(C(F)F)CC5)C(C)(C)C)n4)cc3)cc2)c[nH]1 (some centres unmarked) [Compound Y-71]
Fold-Synergistic 1a (Q30E): >100 fold

CC(C)(C)[C@H](NC(=O)c1ccccc1O)c1nc(-c2ccc(-c3ccc(-c4c[nH]c([C@@H](NC(=O)c5ccccc5O)C(C)(C)C)n4)cc3)cc2)c[nH]1 [Compound Y-72]
Fold-Synergistic 1a (Q30E): >100 fold

CC(C)(C)[C@H](NC(=O)Cc1ccccc1OC(F)(F)F)c1nc(-c2ccc(-c3ccc(-c4c[nH]c([C@@H](NC(=O)Cc5ccccc5OC(F)(F)F)C(C)(C)C)n4)cc3)cc2)c[nH]1 [Compound Y-73]
Fold-Synergistic 1a (Q30E): >100 fold

CC(C)(C)[C@H](NC(=O)C12CCC(CC1)CO2)c1nc(-c2ccc(-c3ccc(-c4c[nH]c([C@@H](NC(=O)C56CCC(CC5)CO6)C(C)(C)C)n4)cc3)cc2)c[nH]1 [Compound Y-74]
Fold-Synergistic 1a (Q30E): >100 fold

CC(C)(C)[C@H](NC(=O)[C@@]1(C)CC(F)(F)CCO1)c1nc(-c2ccc(-c3ccc(-c4c[nH]c([C@@H](NC(=O)[C@@]5(C)CC(F)(F)CCO5)C(C)(C)C)n4)cc3)cc2)c[nH]1 [Compound Y-75]
Fold-Synergistic 1a (Q30E): >100 fold

CC(C)(C)[C@H](NC(=O)[C@@]1(C)CC(F)(F)CO1)c1nc(-c2ccc(-c3ccc(-c4c[nH]c([C@@H](NC(=O)[C@@]5(C)CC(F)(F)CO5)C(C)(C)C)n4)cc3)cc2)c[nH]1 [Compound Y-77]
Fold-Synergistic 1a (Q30E): >100 fold

CC(C)[C@H](NC(=O)[C@@]1(C)CCC(F)(F)CO1)c1nc(-c2ccc(-c3ccc(-c4c[nH]c([C@@H](NC(=O)[C@@]5(C)CCC(F)(F)CO5)C(C)C)n4)cc3)cc2)c[nH]1 [Compound Y-78]
Fold-Synergistic 1a (Q30E): >100 fold

CC(C)[C@H](NC(=O)[C@@]1(C)CC(F)(F)CCO1)c1nc(-c2ccc(-c3ccc(-c4c[nH]c([C@@H](NC(=O)[C@@]5(C)CC(F)(F)CCO5)C(C)C)n4)cc3)cc2)c[nH]1 [Compound Y-79]
Fold-Synergistic 1a (Q30E): >100 fold

CC(C)[C@H](NC(=O)[C@@]1(C)CC(F)(F)CO1)c1nc(-c2ccc(-c3ccc(-c4c[nH]c([C@@H](NC(=O)[C@@]5(C)CC(F)(F)CO5)C(C)C)n4)cc3)cc2)c[nH]1 [Compound Y-80]
Fold-Synergistic 1a (Q30E): >100 fold

CC1([C@H](NC(=O)[C@@]2(C)CCC(F)(F)CO2)c2nc(-c3ccc(-c4ccc(-c5c[nH]c([C@@H](NC(=O)[C@@]6(C)CCC(F)(F)CO6)C6(C)CC6)n5)cc4)cc3)c[nH]2)CC1 [Compound Y-81]
Fold-Synergistic 1a (Q30E): >100 fold

CC1([C@H](NC(=O)[C@@]2(C)CC(F)(F)CCO2)c2nc(-c3ccc(-c4ccc(-c5c[nH]c([C@@H](NC(=O)[C@@]6(C)CC(F)(F)CCO6)C6(C)CC6)n5)cc4)cc3)c[nH]2)CC1 [Compound Y-82]
Fold-Synergistic 1a (Q30E): >100 fold

CC1([C@H](NC(=O)[C@@]2(C)CC(F)(F)CO2)c2nc(-c3ccc(-c4ccc(-c5c[nH]c([C@@H](NC(=O)[C@@]6(C)CC(F)(F)CO6)C6(C)CC6)n5)cc4)cc3)c[nH]2)CC1 [Compound Y-83]
Fold-Synergistic 1a (Q30E): >100 fold
